pEC50: −log10 of the molar value. ≈ marks a conversion by molar mass, not a printed value. Entries after “also recorded” stand apart in the source; their conditions may differ. Like-named read-outs stand apart in the source and are kept apart here.
How the values were obtained:
[1] = In vitro metabolic stability in mouse liver microsomes; assay type: in vitro ADME; settings: NADPH
Procedure: (§1) CFTRact-J027 (5 μM) was incubated for specified times at 37° C. with mouse liver microsomes (1 mg protein/ml; Sigma-Aldrich) in potassium phosphate buffer (100 mM) containing 1 mM NADPH, as described. The mixture was then chilled on ice, and 0.5 ml of ice-cold ethyl acetate was added. Samples were centrifuged for 15 min at 3000 rpm, the supernatant evaporated to dryness, and the residue was dissolved in 100 μL mobile phase (acetonitrile:water, 3:1) for LC/MS and assayed as described above.
as §1, with “In vitro metabolic stability. CFTRact-J027” for “CFTRact-J027”
In vitro metabolic stability. Test compound (at 5 μM) was incubated for specified times at 37° C. with mouse liver microsomes (1 mg protein/ml; Sigma-Aldrich, St. Louis, Mo.) in potassium phosphate buffer containing 1 mM NADPH, as described. Following ethyl acetate extraction, non-metabolized parent compound was assayed by LC/MS.

[2] = Ocular toxicity after chronic topical dosing (slit-lamp, lissamine green staining); assay type: in vivo; settings: chronically treated mice
Procedure: (§2) To assess corneal epithelial disruption, 5 μL of lissamine green (LG) dye (1%) was applied to the ocular surface of isofluorane-anesthetized mice. Photographs of the eye were taken using a Nikon Digital camera adapted to an Olympus Zoom Stereo Microscope (Olympus, Center Valley, Pa., USA). Each corneal quadrant was scored on a 3-point scale by one blinded, trained observer, with the extent of staining in each quadrant classified as: 0, no staining; 1, sporadic (involving <25% of the total surface) staining; grade 2, diffuse punctate staining (25-75%); and grade 3, coalesced punctate staining (>75%). The total grade is reported as the sum of scores from all four quadrants, ranging from 0 to 12.
as §2, with “Lissamine green staining. To” for “To”, “(≥75%).” for “(>75%).”

[3] = In vitro metabolic stability in human liver microsomes; assay type: in vitro ADME
Procedure: To study gastric acid stability CFTRact-J027 (10 μM) was dissolved in simulated gastric fluid (0.2 NaCl, 0.7% HCl, pH 2) and incubated for 3 h at 37° C. To study in vitro metabolic stability CFTRact-J027 (5 μM) was incubated for specified times at 37° C. with human liver microsomes (1 mg protein/ml; Sigma-Aldrich) in potassium phosphate buffer (100 mM) containing 1 mM NADPH. After specified incubation periods the mixtures were chilled on ice, and 0.5 ml of ice-cold ethyl acetate was added. Samples were centrifuged for 15 min at 3000 rpm, the supernatants evaporated to dryness, and the residues were dissolved in 100 μL mobile phase (acetonitrile:water, 3:1) and assayed by liquid chromatography mass spectrometry (LC/MS). The solvent system consisted of a linear gradient from 5 to 95% acetonitrile over 16 min (0.2 ml/min flow). Mass spectra were acquired on a mass spectrometer (Waters 2695 and Micromass ZQ, Milford, Mass.) using electrospray (+) ionization, mass ranging from 100 to 1500 Da, cone voltage 40 V.

Solubility = assay type: physicochemical; settings: read-out: solubility limit
loperamide-treated mice = assay: Loperamide-induced mouse model of constipation; settings: for ED50: Mus musculus
human wildtype CFTR = human wildtype CFTR (Homo sapiens, UniProt P13569); assay: Fluorescence plate reader assay of iodide influx in FRT cells co-expressing CFTR and YFP halide sensor; settings: synthesized compounds, full dose-response study; 125 nM forskolin
Chain of human wildtype CFTR (P13569 whole entry): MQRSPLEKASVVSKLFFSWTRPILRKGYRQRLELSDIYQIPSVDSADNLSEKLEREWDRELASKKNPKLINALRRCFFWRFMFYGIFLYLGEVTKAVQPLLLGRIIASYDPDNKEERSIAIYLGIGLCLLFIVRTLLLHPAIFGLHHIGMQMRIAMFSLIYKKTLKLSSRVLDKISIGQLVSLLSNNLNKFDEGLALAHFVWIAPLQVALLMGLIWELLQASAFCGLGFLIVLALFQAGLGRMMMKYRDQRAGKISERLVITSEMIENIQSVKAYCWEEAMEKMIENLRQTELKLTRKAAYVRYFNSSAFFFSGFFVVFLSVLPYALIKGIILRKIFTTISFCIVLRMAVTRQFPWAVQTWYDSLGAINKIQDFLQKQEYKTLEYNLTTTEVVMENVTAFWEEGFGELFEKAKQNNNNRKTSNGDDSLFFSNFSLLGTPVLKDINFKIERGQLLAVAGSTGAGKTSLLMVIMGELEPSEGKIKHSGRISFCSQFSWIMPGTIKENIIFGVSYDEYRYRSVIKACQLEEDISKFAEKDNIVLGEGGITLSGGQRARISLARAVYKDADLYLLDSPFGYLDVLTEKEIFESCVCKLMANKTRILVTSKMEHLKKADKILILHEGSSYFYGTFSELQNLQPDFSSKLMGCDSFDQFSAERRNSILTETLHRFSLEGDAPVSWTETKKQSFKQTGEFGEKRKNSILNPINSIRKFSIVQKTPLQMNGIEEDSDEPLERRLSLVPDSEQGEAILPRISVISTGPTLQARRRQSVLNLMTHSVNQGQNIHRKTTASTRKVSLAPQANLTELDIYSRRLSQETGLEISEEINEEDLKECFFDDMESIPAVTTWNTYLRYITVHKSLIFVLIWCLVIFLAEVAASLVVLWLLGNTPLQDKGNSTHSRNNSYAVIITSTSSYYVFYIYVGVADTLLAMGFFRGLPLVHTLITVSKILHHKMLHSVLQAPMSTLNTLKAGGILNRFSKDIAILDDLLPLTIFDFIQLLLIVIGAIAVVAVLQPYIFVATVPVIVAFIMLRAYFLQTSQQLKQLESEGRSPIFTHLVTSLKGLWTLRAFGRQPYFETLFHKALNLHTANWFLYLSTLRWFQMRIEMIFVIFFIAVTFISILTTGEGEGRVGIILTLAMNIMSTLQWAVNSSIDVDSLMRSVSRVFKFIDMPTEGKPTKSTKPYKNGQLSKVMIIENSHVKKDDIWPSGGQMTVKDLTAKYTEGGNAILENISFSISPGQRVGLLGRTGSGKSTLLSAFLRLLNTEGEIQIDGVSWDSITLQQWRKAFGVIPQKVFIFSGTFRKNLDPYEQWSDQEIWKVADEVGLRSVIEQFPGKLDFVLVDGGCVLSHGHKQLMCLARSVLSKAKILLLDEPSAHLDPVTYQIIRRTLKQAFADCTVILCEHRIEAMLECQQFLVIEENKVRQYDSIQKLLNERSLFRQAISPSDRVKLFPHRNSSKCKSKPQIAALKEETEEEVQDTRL

## Nc1ccc([N+](=O)[O-])cc1-c1nc2ccccc2n(Cc2ccccc2)c1=O [CFTRact-J027, 3-(2-amino-5-nitrophenyl)-1-benzylquinoxalin-2(1H)-one]
[1]; mouse hepatic microsomes
  compound metabolized at 60 min: ~100%
[1]; mouse liver microsomes
  original compound remaining at 60 min: 7%
[1]; mouse, liver microsomes, 5 μM, read-out: elimination half-life in mouse liver microsomes
  half-life at 5 μM: 21 min
[2]
  LG staining of cornea and conjunctiva: no corneal or conjunctival epithelial disruption
[2]; topical three times daily, two weeks
  ocular toxicity (slit-lamp evaluation): no signs of ocular toxicity
[3]; human hepatic microsomes
  compound remaining at 60 min: 34%
[3]; human, liver microsomes, 5 μM, NADPH, read-out: elimination half-life in human hepatic microsomes
  half-life at 5 μM: ~35 min
Solubility
  solubility: ~20 µM (≈ 7.45 µg/mL)
loperamide-treated mice; 10 mg/kg ip, loperamide-treated mice, 3 h stool
  stool weight, pellet number and water content: normalized each of the stool parameters
loperamide-treated mice; 10 mg/kg oral 1 h prior to loperamide
  stool output and water content, oral: normalized stool output and water content; also recorded: effective in normalizing stool output and water content
loperamide-treated mice; 10 mg/kg oral for 7 days, loperamide 1 h after final dose
  stool output and water content after chronic administration: remained effective in normalizing stool output and water content
loperamide-treated mice; 10 mg/kg oral, control mice
  stool output in control mice, oral: no effect in control mice
loperamide-treated mice; ip, read-out: ED50, ip administration, loperamide model, ip
  ED50: 2 mg/kg
loperamide-treated mice; po, read-out: ED50, oral administration, loperamide model, oral 1 h before loperamide
  ED50: ~0.5 mg/kg
loperamide-treated mice; cystic fibrosis mice lacking functional CFTR
  effect on stool parameters in cystic fibrosis mice: without effect
loperamide-treated mice; ip, non-loperamide-treated mice
  stool output and water content in control mice: did not affect stool output or water content
loperamide-treated mice; mice
  duration of effect: 3 to 4 h
Human wildtype CFTR
  pEC50: 6.70
